Target: T1, recombinant human (rh) KLK5 protease (Homo sapiens, UniProt Q9Y337)
T1 construct: purchased R&D Systems 1108-SE
T1 sequence (Q9Y337 23-293): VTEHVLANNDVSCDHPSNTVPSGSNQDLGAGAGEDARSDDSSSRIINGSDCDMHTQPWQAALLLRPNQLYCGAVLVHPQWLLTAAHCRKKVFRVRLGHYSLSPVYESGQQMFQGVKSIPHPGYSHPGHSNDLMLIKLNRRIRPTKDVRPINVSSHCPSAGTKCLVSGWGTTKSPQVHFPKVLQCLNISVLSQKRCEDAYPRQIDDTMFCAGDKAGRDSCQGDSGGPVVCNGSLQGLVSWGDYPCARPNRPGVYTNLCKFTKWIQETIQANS
Assay: Enzymatic activity of Kallikrein 5 (KLK5), fluorogenic peptide substrate Boc-V-P-R-AMC
Format: biochemical
Experimental: The compound of Formula 1a was assayed for enzymatic activity of Kallikrein 5 (KLK5) as follows, and its activity compared to that of salicylic acid. The KLK5 activity of the compound of Formula 1a was calculated as a percentage of KLK5 activity relative to salicylic acid.
In the stratum corneum, skin's outermost layer, cell-to-cell cohesion depends primarily on proteins known as the corneodesmosomes. During skin remodeling and renewal dead cells are shed from the skin surface by the action of native proteases that break down the corneodesmosomes. […] To this end, the enzymatic activity of a member of the KLK family, recombinant human (rh) KLK5, was monitored following pre-incubation with actives and measuring the rate of peptide bond cleavage of a synthetic substrate.
Enzymatic activity of KLK5 was measured by incubating recombinant human (rh) KLK5 protease (R&D Systems, Cat No. 1108-SE) with a specific fluorogenic peptide substrate Boc-V-P-R-AMC (R&D Systems, Cat No. ES011). […] Increase in fluorescence reading indicates an increase in rhKLK5 activity. […] After 60 seconds of incubation, fluorescence was measured at 340 nm (Excitation wavelength) and 485 nm (Emission wavelength) every 1 minute for 7 minutes. Rate (kinetics) of enzyme activity was calculated as follows: Rate of enzyme activity=Change of fluorescent reading (after background correction)/Change of reaction time (min). […]

KLK5 activity as a percentage relative to salicylic acid (stimulator effect) (relative to salicylic acid, dimer tested at a concentration approximately half of that of salicylic acid, difference not significant): about 90%
KLK5 stimulation (in words) (rhKLK5 enzymatic activity): potent stimulator of KLK5
SMILES: O=C(Oc1ccccc1C(=O)O)c1ccccc1O [compound of Formula 1a]

Source: US9474702B2, “Cosmetic use of salicylic acid derivatives” (Avon Products, Inc., priority 2013, dated 2016)
